From patent publication US7109213B2, “Aminopiperidine compounds, process for their preparation, and pharmaceutical compositions containing them” (Glaxo Group Limited, priority 2002, dated 2006)

Tests used:
Assay in all cases: MIC of test compounds against various organisms
Format in all cases: cell-based
E.faecalis 2 = conditions: Enterococcus faecalis, range stated for all organisms of the panel
Description: (§1) The MIC (μg/ml) of test compounds against various organisms may be determined: S. epidermidis CL7, S. aureus WCUH29, S. pneumoniae 1629, S. pyogenes CN10, H. influenzae ATCC49247, E.faecalis 2, E. faecium 8, M. catarrhalis Ravisio, E. coli 7623.

S. aureus WCUH29 = conditions: Staphylococcus aureus, range stated for all organisms of the panel
Description: as §1

S. pneumoniae 1629 = conditions: Streptococcus pneumoniae, range stated for all organisms of the panel
Description: as §1

M. catarrhalis Ravisio = conditions: Moraxella catarrhalis, range stated for all organisms of the panel
Description: as §1

S. epidermidis CL7 = conditions: Staphylococcus epidermidis, range stated for all organisms of the panel
Description: as §1

S. pyogenes CN10 = conditions: Streptococcus pyogenes, range stated for all organisms of the panel
Description: as §1

H. influenzae ATCC49247 = conditions: Haemophilus influenzae, range stated for all organisms of the panel
Description: as §1

E. faecium 8 = conditions: Enterococcus faecium, range stated for all organisms of the panel
Description: as §1

E. coli 7623 = conditions: Escherichia coli, range stated for all organisms of the panel
Description: as §1

Measured: MIC

COc1ccc2nccc([C@@H](O)CN3CCC(NCc4cnc5snnc5c4)C(F)C3)c2n1 (single isomer, unassigned) [Example 3]
0.06 to 16 µg/mL: all assays above
